The source of these data is patent US20170349540A1, “HISTONE DEACETYLASE INHIBITORS” (The General Hospital Corporation, priority 2014, published 2017).

The nature of this series: Intravenous pharmacokinetics and brain distribution assay. To be noted: single i.v. dose 1 mg/kg. The series is classed as in vivo, male Sprague Dawley rats. The protocol:
Healthy male Sprague Dawley rats (8-12 weeks old) weighing between 200 to 250 g were procured from In vivo Bioscience, Bengluru, India. Three rats were housed in each cage. Temperature and humidity were maintained at 22±3° C. and 40-70%, respectively and illumination was controlled to give a sequence of 12 h light and 12 h dark cycle. Temperature and humidity were recorded by auto-controlled data logger system. All the animals were provided laboratory rodent diet (Vetcare India Pvt. Ltd, Bengaluru) ad libitum. Reverse osmosis water treated with ultraviolet light was provided ad libitum.
Sprague Dawley rats were intravenously administered a solution formulation of the compound of Example 2 prepared in 10% DMSO, 10% Tween 80, 80% normal saline. The blood samples were collected from a set of three rats at each time point in labeled micro centrifuge tube containing K2EDTA solution as anticoagulant. Plasma samples were separated by centrifugation of whole blood and stored at below −70° C. until bioanalysis. After collection of blood samples at each time point animals were humanely euthanized by CO2 and the brain was collected. Brain samples were homogenized using ice-cold phosphate buffer saline (pH=7.4) and homogenates were stored at below −70° C. until analysis. Total homogenate volume was three times the brain weight. All samples were processed for analysis by protein precipitation using acetonitrile and analyzed with fit-for-purpose LC-MS/MS method (LLOQ=1.01 ng/mL in plasma and brain). Pharmacokinetic parameters were calculated using the non-compartmental analysis tool of Phoenix WinNonlin® (Version 6.3).
The compound of Example 2 (5.89 mg) was added in a labeled bottle, followed by DMSO (2.945 mL), Tween 80 (2.945 mL), and normal saline (23.50 mL), and the resulting mixture was mixed by vortexing after each addition. The solution formulation was sonicated for 2 minutes to obtain a clear solution. After preparation of formulation, 200 μL samples were aliquoted for analysis. […] All formulations were freshly prepared prior to dosing. […]
Concentrations of the compound of Example 2 in rat plasma and brain samples were analyzed with fit-for-purpose by LC-MS/MS method. […] Following centrifugation, 100 µL of clear supernatant was transferred to a 96-well plate and analyzed using LC-MS/MS.
Non-Compartmental-Analysis module in Phoenix WinNonlin® (Version 6.3) was used to assess the pharmacokinetic parameters. […] The areas under the concentration time curve (AUClast and AUCinf) were calculated by linear trapezoidal rule. The terminal elimination rate constant, ke, was determined by regression analysis of the linear terminal portion of the log plasma concentration-time curve. […]

Each structure is given as a SMILES string.

By clearance is commonly meant a measure of how efficiently the substance is removed, as volume per time. Read a high clearance as efficient removal. As usually defined, the half-life is the time needed for the level to fall by half in the phase considered. In the case of `CN(Cc1ccc(/C=C/C(=O)Nc2ccccc2N)cc1)CC12CC3CC(CC(C3)C1)C2` [Example 2, (E)-3-(4-((((3r,5r,7r)-adamantan-1-ylmethyl)(methyl)amino)methyl)phenyl)-N-(2-aminophenyl)acrylamide], the “Vss relative to the normal volume of total body water (0.7 L/kg)” value came out at 6 fold. The Kp (male, Sprague Dawley, rat, brain/plasma, iv, read-out: brain-to-plasma exposure ratio) was 8.35. For the setting “male, Sprague Dawley, rat, plasma, iv”, this molecule showed a clearance of 79 mL/min/kg. Moreover, the half-life (male, Sprague Dawley, rat, plasma, iv, read-out: elimination half-life (converted)) was 54.6 min.
